According to patent publication US20080153888A1, “ALPHA-2-DELTA LIGAND/NSAID THERAPEUTIC TREATMENT OF LOWER URINARY TRACT DISORDERS” (Recordati Ireland Limited, priority 2006, published 2008):

Test system: anesthetized rats with acetic acid bladder infusion (animal model of overactive bladder)
Test: Cystometry in anesthetized rats with acetic acid bladder infusion;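 note: Single-filling cystometrograms via bladder-dome catheter, basal values taken after 60 min saline infusion, BVC as mL infused until micturition, MP as peak intravesical pressure (mm Hg)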
Format: in vivo, rat
Conditions: for % Bladder Volume Capacity (vs basal) ± S.E. / ED60 (CL 95%) of recovery of Bladder Volume Capacity to basal value: single drug; for % Bladder Volume Capacity (vs basal) ± S.E.: cumulative administration; for ED60 (CL 95%) of recovery of Bladder Volume Capacity to basal value: i.v., cumulative dose-response
Method: Female rats (225-250 g body weight) were anesthetized with urethane (1.25 g/kg s.c.) and a catheter (PE-50, 0.58 mm I.D.×0.96 mm O.D.) was inserted into the jugular vein for intravenous drug administration. A midline lower abdominal incision was made and a second PE-50 catheter was inserted into the bladder dome for bladder filling and pressure recording, and the incision was sutured.
Dosages were administered by injection in a volume of 1 ml per kg body weight.
a) Saline was continuously infused at a rate of 0.055 ml/min by mean of a peristaltic pump via the bladder-filling catheter for 60 minutes to obtain a baseline of bladder activity. Then the infusion pump was stopped and the bladder was emptied of residual fluid by capillarity via the infusion catheter. After this procedure, a single filling cystometrogram was performed in order to determine the two urodynamic parameters: bladder volume capacity (BVC) and micturition pressure (MP) (BVC and MP BASAL VALUES).
After 30 minutes of acetic acid infusion, 3 vehicle injections were made at 20 minute intervals. Then the infusion pump was stopped, the bladder was emptied and a single filling cystometrogram was recorded as reported before (BVC and MP VALUES AFTER IRRITATION).
This procedure was repeated for three times in order to follow a cumulative dose-response protocol.
BVC is defined as the volume (mL) of fluid (saline or dilute acetic acid) infused in the bladder necessary to induce detrusor contractions followed by micturition. MP is defined as the maximal intravesical pressure (mm Hg) determined by the contraction of the detrusor during micturition.
Changes in bladder capacity for each animal were expressed as “% bladder volume capacity vs. basal (saline infusion)” and an increase in this index was used as measure of efficacy (recovery from irritation to basal value).

Compound | % Bladder Volume Capacity (vs basal) ± S.E. (dose 0.3 mg/kg i.v.) | % Bladder Volume Capacity (vs basal) ± S.E. (dose 1.0 mg/kg i.v.) | % Bladder Volume Capacity (vs basal) ± S.E. (dose 3 mg/kg i.v.) | ED60 (CL 95%) of recovery of Bladder Volume Capacity to basal value | % Bladder Volume Capacity (vs basal) ± S.E. (dose 0.1 mg/kg i.v.) | % Bladder Volume Capacity (vs basal) ± S.E. (dose 3 mg/kg i.v., 3 mg/kg) | % Bladder Volume Capacity (vs basal) ± S.E. (dose 10 mg/kg i.v.) | % Bladder Volume Capacity (vs basal) ± S.E. (dose 30 mg/kg i.v.) | % Bladder Volume Capacity (vs basal) ± S.E. (dose 60 mg/kg i.v.) | % Bladder Volume Capacity (vs basal) ± S.E. (dose 100 mg/kg i.v.) | % Bladder Volume Capacity (vs basal) ± S.E. (dose 300 mg/kg i.v.) | micturition pressure (MP) (after increase of MP induced by acetic acid infusion, data not shown)
O=C(O)Cc1ccccc1Nc1c(Cl)cccc1Cl [Diclofenac, diclofenac] | 41 ± 10% | 63 ± 13% | 82 ± 15% | 0.85 (0.80-0.90) |  |  |  |  |  |  |  | 
CC(C(=O)O)c1ccc(-c2ccccc2)c(F)c1 (stereo not shown) [Flurbiprofen, flurbiprofen] | 42 ± 6% | 49 ± 9% |  | 2.34 (nc-4.77) | 43 ± 11% | 62 ± 10% | 73 ± 12% |  |  |  |  | 
NCC1(CC(=O)O)CCCCC1 [Gabapentin] |  |  |  | 112 (75-149) |  |  |  | 27 ± 4% | 51 ± 15% | 55 ± 9% | 82 ± 12% | 
CS(=O)(=O)Nc1ccc([N+](=O)[O-])cc1Oc1ccccc1 [Nimesulide] | 38 ± 10% | 36 ± 12% | 37 ± 7% | >>10 |  |  | 47 ± 15% |  |  |  |  | 
CC(C)C[C@H](CN)CC(=O)O [Pregabalin, pregabalin] |  |  |  | 300.5 (n.c.-n.c.) |  |  | 31 ± 6% | 35 ± 6% |  | 52 ± 8% |  | recovered to basal values
CC1=C(CC(=O)O)c2cc(F)ccc2/C1=C\c1ccc([S+](C)[O-])cc1 (stereo not shown) [Sulindac, sulindac] | 27 ± 5% | 39 ± 11% | 34 ± 8% | >30 |  |  | 38 ± 4% | 54 ± 8% |  |  |  | 
